# Where two headings read alike, the source gives them in different places.
# What was measured:
# [1] = test system: mono-methyl arginine in RKO cells; test: RKO Methylation Assay, In Cell Western (ICW) for mono-methyl arginine and DNA content; format: cell-based; details: Homo sapiens, RKO, 72 h
# How it was run: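 After fixation, mono-methyl arginine and DNA (DRAQ5) were measured by infrared In-Cell Western imaging at 700/800 nm in RKO cells exposed to compounds for 72 hours. Percent activation used DMSO wells as minimum and 20 μM reference compound as maximum; EC30 curves fitted on triplicate wells.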
# human PRMT8 = human PRMT8 (Homo sapiens, UniProt Q9NR22); test: PRMT8 Biochemical Assay (3H-SAM Flashplate, peptide substrate)
# Text: S-adenosylmethionine (SAM), S-adenosylhomocysteine (SAH), bicine, Tween20, dimethylsulfoxide (DMSO), bovine skin gelatin (BSG), isopropyl-β-D-thiogalactopyranoside (IPTG), and Tris(2-carboxyethyl)phosphine hydrochloride solution (TCEP) were purchased from Sigma-Aldrich at the highest level of purity possible. ^3H-SAM was purchase from American Radiolabeled Chemicals with a specific activity of 80 Ci/mmol. 384-well streptavidin Flashplates were purchased from PerkinElmer.
# Peptide representative of human histone H4 residues 31-45 was synthesized with an N-terminal linker-affinity tag motif and a C-terminal amide cap by 21st Century Biochemicals.
# E. coli (BL21(DE3) Gold, Stratagene) made competent by the CaCl2 method were transformed with the PRMT8 construct and ampicillin selection. Protein over-expression was accomplished by growing the PRMT8 expressing E. coli clone and inducing expression with 0.3 mM IPTG at 16° C. The culture was grown for 12 hours, harvested by centrifugation, and stored at −80° C. for purification.
# GST-tagged PRMT8 was eluted with 50 mM Tris, 2 mM glutathione, pH 7.8. Pooled fractions were cleaved by thrombin (10 U) and dialysed in buffer A. GST was removed by reloading the cleaved protein sample onto glutathione sepharose column and PRMT8 was collected in the flow-through fractions. PRMT8 was purified further by ceramic hydroxyapatite chromatography. The column was washed with 50 mM phosphate buffer, 100 mM NaCl, 5% glycerol, 5 mM β-mercaptoethanol, pH 7.8 and PRMT8 was eluted by 100 mM phosphate in the same buffer. Protein was concentrated and buffer was exchanged to 50 mM Tris, 300 mM NaCl, 10% glycerol, 5 mM β-mercaptoethanol, pH 7.8 by ultrafiltration.
# General Procedure for PRMT8 Enzyme Assays on Peptide Substrates.
# The assays were all performed in a buffer consisting of 20 mM Bicine (pH=7.6), 1 mM TCEP, 0.005% BSG, and 0.002% Tween 20, prepared on the day of use. […] DMSO (1 ul) was added to Columns 11, 12, 23, 24, rows A-H for the maximum signal control and 1 ul of SAH, a known product and inhibitor of PRMT8, was added to columns 11, 12, 23, 24, rows I-P for the minimum signal control. A cocktail (40 ul) containing the PRMT8 enzyme was added by Multidrop Combi (Thermo-Fisher). The compounds were allowed to incubate with PRMT8 for 30 min at room temperature, then a cocktail (10 ul) containing ^3H-SAM and peptide was added to initiate the reaction (final volume=51 ul). […] The assays were stopped by the addition of non-radiolabeled SAM (10 ul) to a final concentration of 400 uM, which dilutes the ^3H-SAM to a level where its incorporation into the peptide substrate is no longer detectable. 50 ul of the reaction in the 384-well polypropylene plate was then transferred to a 384-well Flashplate and the biotinylated peptides were allowed to bind to the streptavidin surface for at least 1 hour before being washed once with 0.1% Tween20 in a Biotek ELx405 plate washer. The plates were then read in a PerkinElmer TopCount plate reader to measure the quantity of ^3H-labeled peptide bound to the Flashplate surface, measured as disintegrations per minute (dpm) or alternatively, referred to as counts per minute (cpm).
# Where dpm=disintegrations per minute, cmpd=signal in assay well, and min and max are the respective minimum and maximum signal controls.
# Where top and bottom are the normally allowed to float, but may be fixed at 100 or 0 respectively in a 3-parameter fit. The Hill Coefficient normally allowed to float but may also be fixed at 1 in a 3-parameter fit. Y is the % inhibition and X is the compound concentration.
# [2] = RKO cells, 72 hours, mono-methyl arginine, percent activation, class symbols, read-out: EC30 (In Cell Western data)
# [3] = RKO cells, 72 hours, mono-methyl arginine, percent activation, single experiment or average of multiple experiments, read-out: EC30 (In Cell Western data, Numerical)
# [4] = single experiment or average of multiple experiments
# Sequence of human PRMT8 (Q9NR22 whole entry): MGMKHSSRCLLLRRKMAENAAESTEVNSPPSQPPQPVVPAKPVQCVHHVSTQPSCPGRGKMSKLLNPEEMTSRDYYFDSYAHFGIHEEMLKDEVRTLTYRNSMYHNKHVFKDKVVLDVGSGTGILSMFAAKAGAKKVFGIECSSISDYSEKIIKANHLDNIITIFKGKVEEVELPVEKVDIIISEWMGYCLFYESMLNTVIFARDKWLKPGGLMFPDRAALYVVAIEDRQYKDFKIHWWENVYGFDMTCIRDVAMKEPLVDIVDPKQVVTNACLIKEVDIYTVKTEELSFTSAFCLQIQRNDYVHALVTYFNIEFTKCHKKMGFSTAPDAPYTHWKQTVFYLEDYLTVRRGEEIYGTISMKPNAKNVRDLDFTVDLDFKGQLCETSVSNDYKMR
Compound,"EC30 [1, 2] [µM]","EC30 [1, 3] [µM]",IC50 (human PRMT8) [nM],IC50 (human PRMT8; [4]) [nM],"EC30 ([1]; read-out: EC30 (In Cell Western data, Numerical, μM)) [µM]"
CNCCN(C)Cc1c[nH]nc1-c1ccc(OCC2CCC2)cc1 [Compound 307],< 3,0.109,< 100,14,–
CNCCN(C)Cc1c[nH]nc1-c1ccc(OC2CCC2)c(F)c1 [Compound 305],< 3,0.193,< 100,18.3,–
CCNC(=O)c1ccc(-c2n[nH]cc2CN(C)CCN)cc1 [Compound 136],–,> 20,–,496,–
CNCCN(C)Cc1c[nH]nc1-c1ccc(C(C)(C)COC)cc1 [Compound 313],< 3,0.894,< 100,60.1,–
CNCCN(C)Cc1c[nH]nc1-c1ccc(OC2CC(OC)C2)cc1 (stereo not shown) [Compound 315],< 3,0.843,101 to 1000,108,–
COc1cc(-c2n[nH]cc2CN(C)CCN)ccc1F [Compound 142],–,2.1,–,273,–
COc1cccc(-c2n[nH]cc2CN(C)CCN)c1 [Compound 130],–,3.92,–,645,–
CCn1ncc(CN(C)CCNC)c1-c1ccc(F)cc1 [Compound 7],–,5.76,–,3240,–
CNCCN(C)Cc1c[nH]nc1-c1ccc(OCC2CCOC2)cc1 (stereo not shown) [Compound 285],< 3,0.62,< 100,69.2,–
CNCCN(C)Cc1c[nH]nc1-c1ccc(OC2COC2)cc1 [Compound 283],< 3,0.379,< 100,42.8,–
CNCCN(C)Cc1c[nH]nc1-c1ccc(OCCOC)cc1 [Compound 289],< 3,0.419,< 100,46,–
CN(CCN)Cc1n[nH]cc1-c1ccc(OC2CC2)cc1 [Compound 119],–,4.54,–,336,–
CCC(COC)Oc1ccc(-c2n[nH]cc2CN(C)CCNC)cc1 (stereo not shown) [Compound 310],< 3,0.032,< 100,17,–
COc1ccc(-c2n[nH]cc2CN(C)CCN)cc1F [Compound 134],–,1.09,–,251,–
CN(CCN)Cc1c[nH]nc1-c1ccc(C(F)(F)F)c(Cl)c1 [Compound 117],–,1.29,–,87.8,–
Cc1cccc(-c2n[nH]cc2CN(C)CCN)c1 [Compound 131],–,2.56,–,360,–
CNCCN(C)Cc1c[nH]nc1-c1ccc(Oc2cncnc2)cc1 [Compound 303],< 3,0.712,< 100,54.7,–
CNCCN(C)Cc1c[nH]nc1-c1ccc(OC(COC)CC(C)C)cc1 (stereo not shown) [Compound 314],< 3,0.51,101 to 1000,110,–
CN(CCN)Cc1c[nH]nc1-c1ccc(C(F)(F)F)cc1Cl [Compound 135],–,8.05,–,1320,–
CN(CCN)Cc1n[nH]cc1-c1ccc(C(F)(F)F)cc1 [Compound 103],–,3.67,–,366,–

Compound,"EC30 [1, 2] [µM]","EC30 [1, 3] [µM]",IC50 (human PRMT8) [nM],IC50 (human PRMT8; [4]) [nM],"EC30 ([1]; read-out: EC30 (In Cell Western data, Numerical, μM)) [µM]"
CN(CCN)Cc1c[nH]nc1-c1ccc(OCC(F)(F)F)cc1 [Compound 96],–,0.92,–,171,–
COc1ccc(-c2n[nH]cc2CN(C)CCN)cc1Cl [Compound 125],–,–,–,308,1.57
CN(CCN)Cc1n[nH]cc1-c1ccc(C2CC2)cc1 [Compound 104],–,3.92,–,301,–
CN(CCN)Cc1n[nH]cc1-c1ccc(OC(F)(F)F)cc1 [Compound 105],–,2.28,–,130,–
CCn1cc(CN(C)CCNC)c(-c2ccc(F)cc2)n1 [Compound 8],–,> 20,–,7200,–
CNCCN(C)Cc1c[nH]nc1-c1ccc(Oc2ncccn2)cc1 [Compound 302],< 3,0.976,101 to 1000,123,–
CNCCN(C)Cc1c[nH]nc1-c1ccc(OC2CC2)cc1 [Compound 293],< 3,0.336,< 100,28,–
CNCCN(C)Cc1c[nH]nc1-c1ccc(OC(CO)C(C)C)cc1 (stereo not shown) [Compound 286],< 3,0.812,< 100,55.3,–
CN(CCN)Cc1n[nH]cc1-c1ccc(OC(F)F)cc1 [Compound 138],–,2.28,–,131,–
CN(CCN)Cc1c[nH]nc1-c1cc(F)cc(Cl)c1 [Compound 121],–,2.07,–,218,–
CN(CCN)Cc1c[nH]nc1-c1ccccc1C#N [Compound 140],–,> 20,–,8270,–
CC(C)Oc1ccc(-c2c[nH]nc2CN(C)CCN)cc1F [Compound 144],–,0.284,–,171,–
CNCCN(C)Cc1c[nH]nc1-c1ccc(OC2CCC(O)CC2)cc1 (stereo not shown) [Compound 299],< 3,0.877,< 100,55,–
CNCCN(C)Cc1c[nH]nc1-c1ccc(OC2CCC2)cc1 [Compound 304],< 3,0.155,< 100,22.4,–
CN(CCN)Cc1c[nH]nc1-c1ccc(OC2CC2)cc1 [Compound 114],–,0.607,–,47.5,–
CN(CCN)Cc1c[nH]nc1-c1ccc(F)c(Cl)c1 [Compound 124],–,1.23,–,294,–
CN(CCN)Cc1n[nH]cc1-c1ccc(C#N)cc1 [Compound 100],–,2.98,–,290,–
CC[C@H](C)Oc1ccc(-c2n[nH]cc2CN(C)CCNC)cc1 [Compound 309],< 3,0.024,< 100,13,–
CNCCN(C)Cc1c[nH]nc1-c1ccc(OC(COC)COC)cc1 [Compound 316],< 3,0.063,< 100,43,–

# Reference: patent US9776972B2, “Pyrazole derivatives as arginine methyltransferase inhibitors and uses thereof” (priority 2013, dated 2017)
